What was measured:
Type in all cases: functional, cell-based
[1] = tested on: P388; assay: Cytotoxicity against mouse P388 cells
[2] = tested on: HT-29; assay: Cytotoxicity against human HT-29 cells
[3] = tested on: A549; assay: Cytotoxicity against human A549 cells
[4] = tested on: SK-MEL-28; assay: Cytotoxicity against human SK-MEL-28 cells

Measured: IC50

CC(C)[C@@H](C)CC[C@@H](C)[C@H]1CC[C@@H]([C@@H]2C[C@H]3O[C@]34C[C@@H](O)CC[C@]4(C)C2=O)[C@]1(C)CCO [SECOSTEROL]
> 1 µg/mL: [1] | [2] | [3] | [4]

CC(=O)O[C@@H]1C/C=C(/C)C[C@H]2O[C@H]3[C@@H]4[C@H]2C(C)=CC(=O)[C@@H]4[C@@H](C)CO[C@@]13C [PACHYCLAVULARIAENONE B]
> 1 µg/mL: [1] | [2] | [3] | [4]

Reference: ChEMBL document CHEMBL1150645, “A new secosterol from the Indonesian octocoral Pachyclavularia violacea” (J Nat Prod, 2002)
